This experiment has as its system K98450-129-R-PDC multicell spheroids, viability. Put plainly: Anticancer human tumor K98450-129-R-PDC patient-derived colon adenocarcinoma cell line growth inhibition [PI3K]. The note with it: for viability, T/C: stronger effect = lower value. In short, it runs like this: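 Tumor cells were combined with HUVEC and MSCs into spheroids, then dosed with PI3K-inhibitor combinations over half-log ranges capped near clinical Cmax or 10 microM.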

pIC50: −log10 of the molar value. “And” between values parts separate entries of the source, which are not always exact repeats. Equal entries are not always repeated.
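Also: spheroids exposed to agents for seven days before read-out.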

`Cn1cnc2c(F)c(Nc3ccc(Br)cc3Cl)c(C(=O)NOCCO)cc21` + Cc1nc(NC(=O)N2CCCC2C(N)=O)sc1-c1ccnc(C(C)(C)C(F)(F)F)c1: the negative logarithm of the IC50 (pIC50) was 5.90 (curve of first compound, second compound 0.0316 µM); 5.99 (curve of first compound, second compound 0.1 µM); 6.00 (curve of first compound, second compound 0.316 µM); 6.16 (curve of first compound, second compound 1 µM); 6.36 (curve of first compound, second compound 3.16 µM); 6.78 (curve of first compound, second compound 10 µM). The viability, T/C is 95.2% (second compound 0.0316 µM, first compound 0.00949 µM); 87.1% (second compound 0.0316 µM, first compound 0.03 µM); 91.9% (second compound 0.0316 µM, first compound 0.0949 µM); 78.3% (second compound 0.0316 µM, first compound 0.3 µM); 61.2% (second compound 0.0316 µM, first compound 0.949 µM); 17.2% (second compound 0.0316 µM, first compound 3 µM). Besides, the viability, T/C was 107% (second compound 0.1 µM, first compound 0.00949 µM); 89.1% (second compound 0.1 µM, first compound 0.03 µM); 84.7% (second compound 0.1 µM, first compound 0.0949 µM); 77% (second compound 0.1 µM, first compound 0.3 µM); 54.3% (second compound 0.1 µM, first compound 0.949 µM); 15.6% (second compound 0.1 µM, first compound 3 µM). Moreover, the viability, T/C is 89% (second compound 0.316 µM, first compound 0.00949 µM); 89.2% (second compound 0.316 µM, first compound 0.03 µM); 79.1% (second compound 0.316 µM, first compound 0.0949 µM); 71.2% (second compound 0.316 µM, first compound 0.3 µM); 53.5% (second compound 0.316 µM, first compound 0.949 µM); 11.2% (second compound 0.316 µM, first compound 3 µM). The viability, T/C is 85.3% (second compound 1 µM, first compound 0.00949 µM); 82.4% (second compound 1 µM, first compound 0.03 µM); 78.9% (second compound 1 µM, first compound 0.0949 µM); 67.2% (second compound 1 µM, first compound 0.3 µM); 43.5% (second compound 1 µM, first compound 0.949 µM); 8.14% (second compound 1 µM, first compound 3 µM). Also, the viability, T/C runs as follows: (second compound 3.16 µM, first compound 0.00949 µM) 76.8%; (second compound 3.16 µM, first compound 0.03 µM) 74.1%; (second compound 3.16 µM, first compound 0.0949 µM) 71.3%; (second compound 3.16 µM, first compound 0.3 µM) 58.5%; (second compound 3.16 µM, first compound 0.949 µM) 32.1%; (second compound 3.16 µM, first compound 3 µM) 4.89%. Also, the viability, T/C (second compound 10 µM, first compound 0.00949 µM) is 63.1%; the viability, T/C (second compound 10 µM, first compound 0.03 µM) was 61.1%; the viability, T/C (second compound 10 µM, first compound 0.0949 µM) is 60.3%; the viability, T/C (second compound 10 µM, first compound 0.3 µM) was 39.4%; the viability, T/C (second compound 10 µM, first compound 0.949 µM) was 10.3%; the viability, T/C (second compound 10 µM, first compound 3 µM) was 2.85%.
Turning to `Cn1ncc(Cl)c1-c1cc(C(=O)NC(CN)Cc2cccc(F)c2)sc1Cl` (stereo not drawn), the viability, T/C was 108% [middle of 4 runs] (compound 0.0316 µM); 98.9% and 101% (2×) and 95.5% (compound 0.1 µM); 107% [middle of 4 runs] (compound 0.316 µM); 98.2% [middle of 4 runs] (compound 1 µM); 92.7% [middle of 4 runs] (compound 3.16 µM). Besides, the pIC50 (curve of compound) is under 5.00.

The values above are taken from PubChem BioAssay AID1963961 (Molecular Pharmacology Branch, DTP, NCI, 2024).
